Numbers after ± are expanded uncertainties.
Settings: Liquid, Vibrating tube method

CCCCCCCCCCCC(=O)OCC [ethyl dodecanoate]
mass density [kg/m3]
Settings | 283.15 K | 293.15 K | 303.15 K | 313.15 K | 323.15 K | 333.15 K | 343.15 K | 353.15 K | 363.15 K
100 kPa | 869.69 ± 0.9 | 862.5 ± 0.89 | 854.28 ± 0.88 | 846.91 ± 0.87 | 838.9 ± 0.87 | 831.05 ± 0.86 | 823.11 ± 0.85 | 815.47 ± 0.84 | 807.52 ± 0.84
1000 kPa | 870.36 ± 0.9 | 863 ± 0.89 | 855.02 ± 0.88 | 847.32 ± 0.88 | 839.64 ± 0.87 | 831.72 ± 0.86 | 824.13 ± 0.85 | 816.33 ± 0.85 | 808.53 ± 0.84
3000 kPa | 871.92 ± 0.9 | 864.24 ± 0.89 | 856.39 ± 0.89 | 848.68 ± 0.88 | 841.1 ± 0.87 | 833.53 ± 0.87 | 825.84 ± 0.86 | 818.26 ± 0.85 | 810.45 ± 0.84
5000 kPa | 872.91 ± 0.9 | 865.2 ± 0.9 | 857.69 ± 0.89 | 850.07 ± 0.88 | 842.59 ± 0.88 | 835.15 ± 0.87 | 827.55 ± 0.86 | 819.99 ± 0.86 | 812.32 ± 0.85
10000 kPa | 876.08 ± 0.91 | 868.58 ± 0.91 | 860.98 ± 0.9 | 853.51 ± 0.89 | 846.29 ± 0.89 | 838.84 ± 0.88 | 831.53 ± 0.88 | 824.24 ± 0.87 | 816.46 ± 0.86
15000 kPa | 878.96 ± 0.92 | 871.64 ± 0.92 | 864.33 ± 0.91 | 856.86 ± 0.9 | 849.77 ± 0.9 | 842.47 ± 0.89 | 835.33 ± 0.89 | 828.35 ± 0.88 | 821.01 ± 0.88
20000 kPa | 881.89 ± 0.93 | 874.58 ± 0.92 | 867.23 ± 0.92 | 860.1 ± 0.91 | 853.3 ± 0.91 | 846.07 ± 0.91 | 839.18 ± 0.9 | 832.01 ± 0.9 | 824.82 ± 0.89
25000 kPa | 884.58 ± 0.94 | 877.55 ± 0.93 | 870.25 ± 0.93 | 863.29 ± 0.93 | 856.35 ± 0.92 | 849.47 ± 0.92 | 842.57 ± 0.91 | 835.81 ± 0.91 | 828.56 ± 0.91
30000 kPa | 887.29 ± 0.95 | 880.26 ± 0.94 | 873.21 ± 0.94 | 866.24 ± 0.94 | 859.5 ± 0.93 | 852.73 ± 0.93 | 846.08 ± 0.93 | 839.36 ± 0.92 | 832.36 ± 0.92
35000 kPa | 890.05 ± 0.96 | 882.89 ± 0.95 | 876.08 ± 0.95 | 869.1 ± 0.95 | 862.45 ± 0.94 | 855.75 ± 0.94 | 849.44 ± 0.94 | 842.72 ± 0.94 | 835.98 ± 0.93
40000 kPa | 892.47 ± 0.96 | 885.52 ± 0.96 | 878.71 ± 0.96 | 871.83 ± 0.96 | 865.48 ± 0.95 | 859.06 ± 0.95 | 852.46 ± 0.95 | 846.01 ± 0.95 | 839.55 ± 0.95
50000 kPa | 897.22 ± 0.98 | 890.85 ± 0.98 | 883.88 ± 0.98 | 877.43 ± 0.98 | 871.16 ± 0.98 | 864.9 ± 0.98 | 858.61 ± 0.98 | 852.29 ± 0.98 | 845.99 ± 0.98
60000 kPa | 901.93 ± 0.99 | 895.29 ± 0.99 | 888.85 ± 0.99 | 882.35 ± 1 | 876.11 ± 1 | 870.44 ± 1 | 864.08 ± 1 | 858.27 ± 1 | 852.14 ± 1

CCCCCCCCCCCC(=O)OC [methyl dodecanoate]
mass density [kg/m3]
Settings | 283.15 K | 293.15 K | 303.15 K | 313.15 K | 323.15 K | 333.15 K | 343.15 K | 353.15 K | 363.15 K
100 kPa | 876.58 ± 0.9 | 869.3 ± 0.9 | 860.98 ± 0.89 | 853.31 ± 0.88 | 845.42 ± 0.87 | 837.89 ± 0.87 | 829.64 ± 0.86 | 821.96 ± 0.85 | 813.95 ± 0.84
1000 kPa | 877.29 ± 0.9 | 869.79 ± 0.9 | 861.67 ± 0.89 | 853.78 ± 0.88 | 846.17 ± 0.87 | 838.44 ± 0.87 | 830.6 ± 0.86 | 822.7 ± 0.85 | 814.97 ± 0.85
3000 kPa | 879.12 ± 0.91 | 871.19 ± 0.9 | 863.19 ± 0.89 | 855.32 ± 0.89 | 847.65 ± 0.88 | 840.13 ± 0.87 | 832.28 ± 0.86 | 824.65 ± 0.86 | 816.88 ± 0.85
5000 kPa | 880.29 ± 0.91 | 872.09 ± 0.9 | 864.57 ± 0.9 | 856.78 ± 0.89 | 849.19 ± 0.88 | 841.69 ± 0.88 | 834.04 ± 0.87 | 826.36 ± 0.86 | 818.64 ± 0.86
10000 kPa | 883.41 ± 0.92 | 875.46 ± 0.91 | 867.78 ± 0.91 | 860.3 ± 0.9 | 852.91 ± 0.89 | 845.49 ± 0.89 | 837.93 ± 0.88 | 830.59 ± 0.88 | 822.93 ± 0.87
15000 kPa | 886.29 ± 0.93 | 878.42 ± 0.92 | 871.1 ± 0.92 | 863.63 ± 0.91 | 856.38 ± 0.9 | 849.14 ± 0.9 | 841.71 ± 0.89 | 834.55 ± 0.89 | 827.44 ± 0.88
20000 kPa | 889.1 ± 0.94 | 881.47 ± 0.93 | 874.06 ± 0.92 | 866.74 ± 0.92 | 859.88 ± 0.91 | 852.7 ± 0.91 | 845.7 ± 0.91 | 838.32 ± 0.9 | 831.22 ± 0.9
25000 kPa | 891.75 ± 0.94 | 884.32 ± 0.94 | 876.92 ± 0.93 | 870.04 ± 0.93 | 863.01 ± 0.93 | 856.12 ± 0.92 | 848.98 ± 0.92 | 842.04 ± 0.91 | 834.95 ± 0.91
30000 kPa | 894.31 ± 0.95 | 887.1 ± 0.95 | 879.85 ± 0.94 | 872.94 ± 0.94 | 866.2 ± 0.94 | 859.27 ± 0.93 | 852.48 ± 0.93 | 845.62 ± 0.93 | 838.64 ± 0.92
35000 kPa | 896.95 ± 0.96 | 889.69 ± 0.96 | 882.66 ± 0.95 | 875.68 ± 0.95 | 869.19 ± 0.95 | 862.4 ± 0.94 | 855.72 ± 0.94 | 849.06 ± 0.94 | 842.26 ± 0.94
40000 kPa | 899.33 ± 0.97 | 892.27 ± 0.96 | 885.34 ± 0.96 | 878.33 ± 0.96 | 872.15 ± 0.96 | 865.66 ± 0.95 | 858.94 ± 0.95 | 853.14 ± 0.95 | 845.87 ± 0.95
50000 kPa | 904.05 ± 0.98 | 897.52 ± 0.98 | 890.6 ± 0.98 | 883.95 ± 0.98 | 877.67 ± 0.98 | 871.36 ± 0.98 | 864.79 ± 0.98 | 858.49 ± 0.98 | 852.24 ± 0.98
60000 kPa | 909.85 ± 0.99 | 901.95 ± 0.99 | 895.49 ± 0.99 | 888.91 ± 0.99 | 883.06 ± 1 | 876.77 ± 1 | 870.31 ± 1 | 864.35 ± 1 | 858.43 ± 1
